Tests used:
B. subtilis = details: duplicate experiments
E. coli = details: duplicate experiments
S. aureus = details: duplicate experiments
E. faecium E1162 = test: BioScreen growth assay for E. faecium E1162; format: cell-based; details: 5 μM
Experimental: A BioScreen C instrument (Oy Growth Curves AB, Helsinki, Finland) was used to monitor effects of the compounds (6), (10), and (12) and the effect of compound (24) with R1-group (e), or Comparative compound B (nisin) on E. faecium growth (each compound administered at a fixed concentration 5 μM). E. faecium strains were inoculated at an initial OD660 of 0.05 into 300 μl TSB containing 1% DMSO and 1% glucose or into the same medium containing the antibiotic compounds at a final concentration of 5 μM. […]
The E. faecium strains used in these experiments are E. faecium E745 (vancomycin-ampicillin resistant hospital outbreak strain), E. faecium E980 (vancomycin-ampicillin susceptible human commensal isolate), E. Faecium E1133 (vancomycin-ampicillin resistant hospital outbreak strain), and E. faecium E1162 (vancomycin-susceptible ampicillin-resistant clinical isolate). The BioScreen growth assays for each strain was determined for the compounds (6), (10), (12) and also for compound (24) with R1-group (e) as well as nisin (Comparative compound B) and compared to non-treated strains, the results being shown in the Tables 9 to 12 below.

For nisin [Compound B], the “MIC values B. subtilis” value (B. subtilis) was 0.625 to 2.5 µg/mL, the “MIC values E. coli” value (E. coli) was over 10 µg/mL and the “MIC values S. aureus” value (S. aureus) was 10 µg/mL. For the same substance, the OD600 (E. faecium E1162; time 0 h) was 0.024, the OD600 (E. faecium E1162; time 4 h) was 0.01533 and the OD600 (E. faecium E1162; time 8 h) was 0.01133. For the same substance, the OD600 (E. faecium E1162; time 12 h) was 0.012 and the OD600 (E. faecium E1162; time 16 h) was 0.01033.

— US20170362283A1, “NISIN-BASED COMPOUNDS AND USE THEREOF IN THE TREATMENT OF BACTERIAL INFECTIONS” (UNIVERSITEIT UTRECHT HOLDING B.V., priority 2015, published 2017)
